Data taken from ChEMBL document CHEMBL1201862, “PubChem BioAssay data set” (2004).
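Protocol summary: plate cells (96-well), add compound at 5 concentrations, incubate 48 h, interpolate endpoints linearly. GI50 marks 50% less growth.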 The source made the active and inactive calls. No stated cut-off is given here; in the data, active = GI50 up to about 1.1 µM and inactive = higher.

Legend:
Experiment in all cases: NCI tumour cell line growth inhibition, 48 h
[1] = test system: HOP-62
[2] = test system: CCRF-CEM
[3] = test system: K562
[4] = test system: PC-3
[5] = test system: NCI/ADR-RES
[6] = test system: SK-MEL-28
[7] = test system: BT-549
[8] = test system: MOLT-4
[9] = test system: CAKI-1
[10] = test system: Hs-578T
[11] = test system: UACC-257
[12] = test system: EKVX
[13] = test system: SK-MEL-2
[14] = test system: SNB-75
[15] = test system: HL-60
[16] = test system: SF-295
[17] = test system: NCI-H226
[18] = test system: SK-MEL-5
[19] = test system: RPMI-8226

Measured: GI50

Cc1[nH]n(-c2ccccc2)c(=O)c1C(N(CCc1ccccc1)C1=NCC(C)S1)(C(F)(F)F)C(F)(F)F (stereo unspecified)
inactive: [1] 24.3 µM | [2] 19.3 µM | [3] 15.2 µM | [4] 16.1 µM | [5] 18.9 µM | [6] 16.4 µM | [7] 10.4 µM | [8] 20.5 µM | [9] 13.5 µM | [10] 20.5 µM | [11] 16 µM | [12] 11.3 µM | [13] 8.51 µM | [14] 16.5 µM | [15] 7.69 µM | [16] 9.02 µM | [17] 6.28 µM | [18] 7.71 µM

CS(=O)(=O)Nc1ccc2ccccc2c1
inactive: [1] 95.7 µM | [2] > 100 µM | [3] > 100 µM | [4] > 100 µM | [5] > 100 µM | [6] > 100 µM | [7] 30.4 µM | [8] > 100 µM | [9] > 100 µM | [10] > 100 µM | [11] > 100 µM | [19] > 100 µM | [12] 57.3 µM | [13] > 100 µM | [14] > 100 µM | [15] > 100 µM | [16] > 100 µM | [17] 79.4 µM | [18] > 100 µM

Cc1nn(-c2ccccc2)c2c1N=C(C(=O)O)CC(c1ccccc1)=N2
inactive: [1] > 10 µM | [3] > 10 µM | [4] > 10 µM | [5] > 10 µM | [6] > 10 µM | [7] > 10 µM | [8] > 10 µM | [9] > 10 µM | [10] > 10 µM | [11] > 10 µM | [19] > 10 µM | [14] > 10 µM | [15] > 10 µM | [16] > 10 µM | [18] > 10 µM

COc1cc([N+](=O)[O-])c(S(=O)(=O)O)cc1NS(=O)(=O)c1ccc(C)cc1
inactive: [1] > 100 µM | [2] > 100 µM | [3] > 100 µM | [4] > 100 µM | [5] > 100 µM | [6] > 100 µM | [7] > 100 µM | [8] > 100 µM | [9] > 100 µM | [10] > 100 µM | [11] > 100 µM | [19] > 100 µM | [12] > 100 µM | [13] > 100 µM | [14] > 100 µM | [15] > 100 µM | [16] > 100 µM | [17] > 100 µM | [18] > 100 µM
